From ChEMBL document CHEMBL5725458, “Histone deacetylase inhibitors and compositions and methods of use thereof” (2018)

Target: Histone deacetylase 4 (Homo sapiens, UniProt P56524)
Assay: HDAC4 Biochemical: The Class I HDAC activity of Class IIa Histone Deacetylase (HDAC) inhibitors was quantified by measuring the cellular histone deacetylase enzymatic activity using the fluorogenic substrate, Boc-Lys(Ac)-AMC. This was performed according to the procedure in Example 17, using Boc-Lys(Ac)-AMC substrate in place of Boc-Lys(TFA)-AMC.

Sequence of Histone deacetylase 4 (P56524 whole entry): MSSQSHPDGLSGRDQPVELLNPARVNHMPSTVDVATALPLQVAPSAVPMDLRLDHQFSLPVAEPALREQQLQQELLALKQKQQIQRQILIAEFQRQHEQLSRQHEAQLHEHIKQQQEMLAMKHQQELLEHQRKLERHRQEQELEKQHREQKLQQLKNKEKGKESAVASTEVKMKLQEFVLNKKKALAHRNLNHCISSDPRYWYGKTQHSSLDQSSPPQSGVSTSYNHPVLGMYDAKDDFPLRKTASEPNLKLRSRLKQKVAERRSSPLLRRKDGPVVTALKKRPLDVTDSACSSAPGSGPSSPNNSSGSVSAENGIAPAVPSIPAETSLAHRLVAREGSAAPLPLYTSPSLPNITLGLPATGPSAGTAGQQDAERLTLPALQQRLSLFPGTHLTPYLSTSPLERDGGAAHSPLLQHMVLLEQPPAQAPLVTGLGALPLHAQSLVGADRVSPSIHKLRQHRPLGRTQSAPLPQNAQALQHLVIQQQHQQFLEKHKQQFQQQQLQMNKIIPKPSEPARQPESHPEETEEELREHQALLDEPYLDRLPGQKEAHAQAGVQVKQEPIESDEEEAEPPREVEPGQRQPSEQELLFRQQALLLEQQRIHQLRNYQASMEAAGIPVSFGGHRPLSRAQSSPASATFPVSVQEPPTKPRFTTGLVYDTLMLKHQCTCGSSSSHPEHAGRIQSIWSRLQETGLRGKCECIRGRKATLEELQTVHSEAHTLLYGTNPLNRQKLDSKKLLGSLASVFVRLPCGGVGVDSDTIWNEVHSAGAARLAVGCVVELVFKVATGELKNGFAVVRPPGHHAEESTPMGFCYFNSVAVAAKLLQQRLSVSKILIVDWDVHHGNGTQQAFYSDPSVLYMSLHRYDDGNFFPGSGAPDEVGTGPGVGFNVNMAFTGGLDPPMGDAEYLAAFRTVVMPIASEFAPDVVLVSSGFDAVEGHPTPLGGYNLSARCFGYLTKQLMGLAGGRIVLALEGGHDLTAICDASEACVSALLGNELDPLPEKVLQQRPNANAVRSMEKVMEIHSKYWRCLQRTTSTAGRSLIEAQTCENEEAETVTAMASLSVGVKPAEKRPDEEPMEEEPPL

In the case of `O=C(NC1(CN2CC3CCC(C3)C2)CC1)c1ccc(-c2noc(C(F)(F)F)n2)cc1`, the IC50 is reported as 330 nM.
